According to US11427553B2, “Dihydrooxadiazinones” (Bayer Aktiengesellschaft, priority 2017, dated 2022):
Where a name gives a salt, the structure may show the parent alone.

Experiments:
[1] = tested on: SK-MEL-3 cells; assay: Assay 1 cell proliferation measurement (CTG, 72 h), SK-MEL-3; format: cell-based, human; conditions: Homo sapiens, SK-MEL3; Assay 1, 72 h, Cell Titer Glo; read-out: SK-MEL-3 IC50 [nM] (melanoma)
Procedure: Cell Proliferation Measurement
The antiproliferative activity of the compounds of the general formula (I) was examined in vitro in human cancer cells. For this purpose, the appropriate number of cells (Hela: 800; SK-MEL-3: 1000; A549: 800) were plated in 384-well plates with appropriate growth medium ((A549: DMEM/Ham's F12 (Biochrom; #FG 4815 with stabile Glutamine), FCS 10% final (Biochrom; #S 0415); Hela: DMEM/Ham's F12 (Biochrom; #FG 4815 with stabile Glutamine), FCS 10% final (Biochrom; #S 0415); SK-MEL-3: McCoy's 5A (Biochrom; #F 1015), FCS 10% final (Biochrom; #S 0415), L-Alanyl-L-Glutamine final: 2 mM, (Biochrom; #K 0302)) and incubated at 37° C. overnight. After 24 h, cells on one plate (0 h plate) were treated with 30 μl/cavity of CTG solution (Promega Cell Titer Glo (catalogue #G755B and G756B)) and incubated at room temperature for 10 min, and luminescence was measured by means of a VICTOR V (Perkin Elmer), in order to determine cell viability on commencement of treatment. The cells on the test plate were treated with the compounds of the general formula (I) as and incubated at 37° C. for 72 h. The compounds were added to the cells by means of an HP D300 digital dispenser in a 10-step 2.5-fold dilution series generally starting at a maximum final drug concentration of 100 nM. As control, the cells were treated with vehicle (DMSO at 0.3% final concentration). After 72 h, the cells were treated with 30 μl/cavity of CTG solution (Promega Cell Titer Glo (catalogue #G755B and G756B)) and incubated at room temperature for 10 min. and luminescence was measured by means of a VICTOR V (Perkin Elmer), in order to determine cell viability at the end of treatment. The percentage effect on cell growth and the IC50 derived therefrom were determined for each test substance using the values from the 0 h plate […] and the DMSO control […]. The IC50 values were calculated using a 4-parameter fit.

[2] = tested on: HeLa cells; assay: Assay 1 cell proliferation measurement (CTG, 72 h), HeLa; format: cell-based, human; conditions: Homo sapiens, HeLa; Assay 1, 72 h, Cell Titer Glo; read-out: HeLa IC50 [nM] (Cervical cancer)
Procedure, shortened: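 Growth inhibition relative to a 0 h baseline plate and 0.3% DMSO control, with IC50 fitted by 4-parameter curve. Compound exposure lasted 72 h at 37 °C across a 2.5-fold, 10-step series starting generally at 100 nM final.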

[3] = biological target: human full length PDE3B (Homo sapiens (Human), UniProt Q13370); assay: Assay 5 PDE3B enzyme inhibition (3H-cAMP SPA); format: biochemical; conditions: Sf9 cell extract
Procedure, shortened: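 Sf9 cell extract expressing human full-length PDE3B, diluted for linear kinetics (<70% substrate use), in 50 mM Tris/HCl pH 7.5, 8.3 mM MgCl2, 1.7 mM EDTA. [8-3H]cAMP substrate, 60 min at room temperature; stopped with yttrium SPA beads, scintillation counting. IC50 from sigmoidal activity vs log concentration curves.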

[4] = biological target: human full length PDE3A (Homo sapiens (Human), UniProt Q14432); assay: Assay 4 PDE3A enzyme inhibition (3H-cAMP SPA); format: biochemical; conditions: Sf9 cell extract
Procedure, shortened: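 In this SPA format, the 60-min room-temperature reaction used 0.025 μCi [8-3H]cAMP and diluted full-length PDE3A from Sf9 cells. Percentage activity was plotted against log compound concentration to derive IC50.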

Sequence of human full length PDE3B (Q13370 whole entry): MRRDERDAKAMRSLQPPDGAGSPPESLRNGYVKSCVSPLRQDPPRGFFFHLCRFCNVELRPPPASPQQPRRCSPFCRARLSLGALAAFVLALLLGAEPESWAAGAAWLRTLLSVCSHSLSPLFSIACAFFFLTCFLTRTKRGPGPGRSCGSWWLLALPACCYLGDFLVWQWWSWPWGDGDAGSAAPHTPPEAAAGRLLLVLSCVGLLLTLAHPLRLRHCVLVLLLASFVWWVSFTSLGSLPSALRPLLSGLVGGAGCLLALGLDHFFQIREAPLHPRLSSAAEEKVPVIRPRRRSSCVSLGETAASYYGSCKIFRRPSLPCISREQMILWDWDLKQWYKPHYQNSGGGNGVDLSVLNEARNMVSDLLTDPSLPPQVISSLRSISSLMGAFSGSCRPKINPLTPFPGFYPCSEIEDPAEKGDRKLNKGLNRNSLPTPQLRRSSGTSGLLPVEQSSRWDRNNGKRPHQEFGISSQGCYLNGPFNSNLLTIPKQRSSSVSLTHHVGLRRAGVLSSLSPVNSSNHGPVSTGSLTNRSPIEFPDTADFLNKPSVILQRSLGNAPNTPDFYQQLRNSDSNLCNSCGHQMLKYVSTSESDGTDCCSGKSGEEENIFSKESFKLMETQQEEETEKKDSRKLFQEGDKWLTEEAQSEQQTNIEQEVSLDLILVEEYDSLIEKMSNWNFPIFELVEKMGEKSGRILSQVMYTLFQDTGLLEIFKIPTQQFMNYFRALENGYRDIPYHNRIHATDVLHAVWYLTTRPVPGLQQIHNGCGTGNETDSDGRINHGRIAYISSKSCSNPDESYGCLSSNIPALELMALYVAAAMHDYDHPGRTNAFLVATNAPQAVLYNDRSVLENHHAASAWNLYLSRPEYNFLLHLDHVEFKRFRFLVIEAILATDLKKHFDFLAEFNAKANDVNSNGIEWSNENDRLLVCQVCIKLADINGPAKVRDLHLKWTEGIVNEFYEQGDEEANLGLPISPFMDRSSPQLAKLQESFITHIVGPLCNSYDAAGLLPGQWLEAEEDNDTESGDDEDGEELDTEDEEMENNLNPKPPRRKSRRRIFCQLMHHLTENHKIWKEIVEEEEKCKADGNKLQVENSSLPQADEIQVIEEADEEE
Sequence of human full length PDE3A (Q14432 whole entry): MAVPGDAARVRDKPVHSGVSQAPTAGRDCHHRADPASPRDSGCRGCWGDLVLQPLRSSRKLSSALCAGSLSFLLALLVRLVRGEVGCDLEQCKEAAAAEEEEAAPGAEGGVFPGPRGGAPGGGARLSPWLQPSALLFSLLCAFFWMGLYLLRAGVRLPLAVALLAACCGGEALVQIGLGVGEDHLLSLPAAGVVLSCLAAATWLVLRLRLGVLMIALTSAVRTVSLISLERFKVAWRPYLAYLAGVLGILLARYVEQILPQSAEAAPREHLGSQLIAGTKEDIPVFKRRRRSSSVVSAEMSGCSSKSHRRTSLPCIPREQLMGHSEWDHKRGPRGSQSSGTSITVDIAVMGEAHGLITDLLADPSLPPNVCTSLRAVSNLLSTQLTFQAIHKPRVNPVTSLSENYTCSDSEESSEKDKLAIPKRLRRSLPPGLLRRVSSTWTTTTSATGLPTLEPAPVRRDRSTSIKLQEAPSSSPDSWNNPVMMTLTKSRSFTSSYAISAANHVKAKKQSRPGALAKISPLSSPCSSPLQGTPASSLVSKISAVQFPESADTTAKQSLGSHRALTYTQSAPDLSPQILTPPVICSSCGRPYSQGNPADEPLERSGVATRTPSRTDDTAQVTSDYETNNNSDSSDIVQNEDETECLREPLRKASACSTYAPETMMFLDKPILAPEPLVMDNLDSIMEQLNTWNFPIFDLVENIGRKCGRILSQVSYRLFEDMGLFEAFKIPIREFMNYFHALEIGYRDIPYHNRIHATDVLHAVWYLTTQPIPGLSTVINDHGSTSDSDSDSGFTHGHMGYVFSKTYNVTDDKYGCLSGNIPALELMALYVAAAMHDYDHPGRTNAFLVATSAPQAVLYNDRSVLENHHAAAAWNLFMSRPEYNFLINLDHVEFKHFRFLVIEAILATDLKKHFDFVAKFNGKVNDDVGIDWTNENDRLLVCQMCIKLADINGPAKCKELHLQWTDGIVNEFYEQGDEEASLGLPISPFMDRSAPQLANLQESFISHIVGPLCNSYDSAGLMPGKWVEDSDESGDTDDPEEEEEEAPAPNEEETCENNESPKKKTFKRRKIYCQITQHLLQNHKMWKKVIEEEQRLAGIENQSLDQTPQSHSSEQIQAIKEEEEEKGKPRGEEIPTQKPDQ

Row | IC50 [1] [nM] | IC50 [2] [nM] | IC50 [3] [nM] | IC50 [4] [nM] | Compound
1 | 16 | 14 | 210 | 65 | C[C@@H](O)CCNc1ccc(C2=NNC(=O)OC2)cc1C(F)(F)F [Example 217, 5-[4-{[(3R)-3-Hydroxybutyl]amino}-3-(trifluoromethyl)phenyl]-3,6-dihydro-2H-1,3,4-oxadiazin-2-one]
2 | > 100 | 33 | 79 | 37 | COc1cc(-c2ccc(C3=NNC(=O)OC3)cc2F)ccn1 [Example 95, 5-[3-Fluoro-4-(2-methoxypyridin-4-yl)phenyl]-3,6-dihydro-2H-1,3,4-oxadiazin-2-one]
3 | 1 | 0.3 | 4 | 6 | C[C@@H]1OC(=O)NN=C1c1ccc(N2CCOCC2)c(C(F)(F)F)c1 [Example 120, (6S)-6-Methyl-5-[4-(morpholin-4-yl)-3-(trifluoromethyl)phenyl]-3,6-dihydro-2H-1,3,4-oxadiazin-2-one]
4 | 25 | 6 | 210 | 84 | Cc1cc(-c2ccc(C3=NNC(=O)OC3)cc2F)ccc1F [Example 86, 5-(2,4′-Difluoro-3′-methylbiphenyl-4-yl)-3,6-dihydro-2H-1,3,4-oxadiazin-2-one]
5 | 8 | 5 | 130 | 65 | Cc1ccc(-c2ccc(C3=NNC(=O)OC3)cc2F)cn1 [Example 97, 5-[3-Fluoro-4-(6-methylpyridin-3-yl)phenyl]-3,6-dihydro-2H-1,3,4-oxadiazin-2-one]
6 | 25 | 39 | 75 | 79 | Cc1ccc(-c2ccc(C3=NNC(=O)OC3)cc2C(F)(F)F)cc1O [Example 35, 5-[3′-Hydroxy-4′-methyl-2-(trifluoromethyl)biphenyl-4-yl]-3,6-dihydro-2H-1,3,4-oxadiazin-2-one]
7 | 5 | 2 | 180 | 74 | O=C1NN=C(c2ccc(N3CCC3)c(C(F)(F)F)c2)CO1 [Example 72, 5-[4-(Azetidin-1-yl)-3-(trifluoromethyl)phenyl]-3,6-dihydro-2H-1,3,4-oxadiazin-2-one]
8 | 21 | 10 | 48 | 29 | Cc1cnccc1-c1ccc(C2=NNC(=O)OC2)cc1F [Example 78, 5-[3-Fluoro-4-(3-methylpyridin-4-yl)phenyl]-3,6-dihydro-2H-1,3,4-oxadiazin-2-one]
9 | 30 | 15 | 83 | 38 | O=C1NN=C(c2ccc(-c3ccc4nccn4c3)c(C(F)(F)F)c2)CO1 [Example 143, 5-[4-(Imidazo[1,2-a]pyridin-6-yl)-3-(trifluoromethyl)phenyl]-3,6-dihydro-2H-1,3,4-oxadiazin-2-one]
10 | 9 | 4 | 270 | 130 | Cc1ccccc1-c1ccc(C2=NNC(=O)OC2)cc1F [Example 81, 5-(2-Fluoro-2′-methylbiphenyl-4-yl)-3,6-dihydro-2H-1,3,4-oxadiazin-2-one]
11 | 765 | 3 | 100 | 100 | Nc1ccc(-c2ccc(C3=NNC(=O)OC3)cc2C(F)(F)F)cc1 [Example 34, 5-[4′-Amino-2-(trifluoromethyl)biphenyl-4-yl]-3,6-dihydro-2H-1,3,4-oxadiazin-2-one]
12 | 16 | 10 | 320 | 230 | O=C1NN=C(c2ccc(-c3ccc(F)c(F)c3)c(C(F)(F)F)c2)CO1 [Example 61, 5-[3′,4′-Difluoro-2-(trifluoromethyl)biphenyl-4-yl]-3,6-dihydro-2H-1,3,4-oxadiazin-2-one]
13 | 5 | 3 | 97 | 139 | CC1(F)CCN(c2ccc(C3=NNC(=O)OC3)cc2F)CC1 [Example 5, 5-[3-Fluoro-4-(4-fluoro-4-methylpiperidin-1-yl)phenyl]-3,6-dihydro-2H-1,3,4-oxadiazin-2-one]
14 | > 100 | > 100 | 30 | 17 | Cc1nc2cc(-c3ccc(C4=NNC(=O)OC4)cc3C(F)(F)F)ccc2[nH]1 [Example 326, 5-[4-(2-methyl-1H-benzimidazol-5-yl)-3-(trifluoromethyl)phenyl]-3,6-dihydro-2H-1,3,4-oxadiazin-2-one]
15 | 3 | 1 | 89 | 100 | Cc1ncc(-c2ccc(C3=NNC(=O)OC3)cc2C(F)(F)F)s1 [Example 54, 5-[4-(2-Methyl-1,3-thiazol-5-yl)-3-(trifluoromethyl)phenyl]-3,6-dihydro-2H-1,3,4-oxadiazin-2-one]
16 | 65 | 40 | 330 | 150 | O=C1NN=C(c2ccc(Br)c(C(F)F)c2)CO1 [Intermediate 77, 5-[4-Bromo-3-(difluoromethyl)phenyl]-3,6-dihydro-2H-1,3,4-oxadiazin-2-one]
17 | 6 | 5 | 57 | 66 | Cc1cc(-c2ccc(C3=NNC(=O)O[C@H]3C)cc2C(F)(F)F)ccn1 [Example 184, (6S)-6-Methyl-5-[4-(2-methylpyridin-4-yl)-3-(trifluoromethyl)phenyl]-3,6-dihydro-2H-1,3,4-oxadiazin-2-one]
18 | 5 | 3 | 220 | 45 | O=C1NN=C(c2ccc(NC[C@H]3CCCO3)c(C(F)(F)F)c2)CO1 [Example 225, 5-[4-({[(2R)-Oxolan-2-yl]methyl}amino)-3-(trifluoromethyl)phenyl]-3,6-dihydro-2H-1,3,4-oxadiazin-2-one]
19 | 31 | 19 | 400 | 300 | NCCNc1ccc(C2=NNC(=O)OC2)cc1C(F)(F)F [Example 274, 5-{4-[(2-Aminoethyl)amino]-3-(trifluoromethyl)phenyl}-3,6-dihydro-2H-1,3,4-oxadiazin-2-one-salt with hydrochloric acid]
20 | 9 | 5 | 66 | 48 | O=C1NN=C(c2ccc(-c3cc(F)ccc3F)c(F)c2)CO1 [Example 100, 5-(2,2′,5′-Trifluoro[1,1′-biphenyl]-4-yl)-3,6-dihydro-2H-1,3,4-oxadiazin-2-one]
21 | 2 | 1 | 73 | 59 | COCCCNc1ccc(C2=NNC(=O)OC2)cc1C(F)(F)F [Example 214, 5-{4-[(3-Methoxypropyl)amino]-3-(trifluoromethyl)phenyl}-3,6-dihydro-2H-1,3,4-oxadiazin-2-one]
22 | 2 | 2 | 54 | 29 | O=C1NN=C(c2ccc(N[C@H]3CC[C@H](O)CC3)c(C(F)(F)F)c2)CO1 [Example 211, (trans)-5-[4-{[4-Hydroxycyclohexyl]amino}-3-(trifluoromethyl)phenyl]-3,6-dihydro-2H-1,3,4-oxadiazin-2-one]
23 | 13 | 6 | 190 | 230 | O=C1NN=C(c2ccc(-c3cnsc3)c(C(F)(F)F)c2)CO1 [Example 49, 5-[4-(1,2-Thiazol-4-yl)-3-(trifluoromethyl)phenyl]-3,6-dihydro-2H-1,3,4-oxadiazin-2-one]
24 | 14 | 8 | 140 | 100 | O=C1NN=C(c2ccc(-c3cc(F)cc(F)c3)c(F)c2)CO1 [Example 110, 5-(2,3′,5′-Trifluoro[1,1′-biphenyl]-4-yl)-3,6-dihydro-2H-1,3,4-oxadiazin-2-one]
